Test results from ChEMBL document CHEMBL1268963, “Identification of a sulfonoquinovosyldiacylglyceride from Azadirachta indica and studies on its cytotoxic activity and DNA binding properties” (Bioorg Med Chem Lett, 2010).

What was measured:
[1] = test system: Calf thymus DNA; assay: Binding affinity to calf thymus DNA assessed as exothermic enthalpy at 20 degC by isothermal titration […]; type: nucleic-acid assay; details: Bos taurus
[2] = test system: MOLT-4; assay: […] in human MOLT4 cells after 24 to 72 hrs by MTT assay; type: functional, cell-based
[3] = test system: Calf thymus DNA; assay: Binding affinity to double strand calf thymus DNA assessed as melting temperature; type: nucleic-acid assay; details: Bos taurus

Ka [1]: 5.64 ×10⁴ /M
IC50 [2]: 8.3 µM
Tm [3]: 62 °C
Structure (SMILES): CCCCCCCCCCCCCCCC(=O)OCC(CO[C@H]1O[C@H](CS(=O)(=O)O)[C@@H](O)[C@H](O)[C@H]1O)OC(=O)CCCCCCCCCCCCCCC (stereo partly drawn)
